US20260070945A1, “MACROCYCLIC IMMUNOMODULATORS” (Bristol-Myers Squibb Company, priority 2022, published 2026)
*1 amine or outer side, *2 acyl side, *3 side chain or, on linkers, in order; H or OH if unused. Where a SMILES comes first, the peptide text is derived from it. Bridges are numbered along the chain shown (N, C = ends). [ ]: non-standard residue; d: D form. The star is where a group is joined. Phe(4-COOH) = N[C@@H](Cc1ccc(C(=O)O)cc1)C(=O)O; Bip = N[C@@H](Cc1ccc(-c2ccccc2)cc1)C(=O)O; Phe(3-Me) = Cc1cccc(C[C@H](N)C(=O)O)c1; γGlu = O=C(O)[C@H](CCC(=O)[*:2])N[*:1]; βAsp = O=C(O)[C@H](CC(=O)[*:2])N[*:1]; Cha = N[C@@H](CC1CCCCC1)C(=O)O; Carboxymethyl = O=C(O)C*; NMeA = CN[C@@H](C)C(=O)O; Orn = NCCC[C@H](N)C(=O)O; Aun = NCCCCCCCCCCC(=O)O; Dab = NCC[C@H](N)C(=O)O; Dap = NC[C@H](N)C(=O)O; AEEA = NCCOCCOCC(=O)O

Target: T1, PD-1/PD-L1 interaction (PE-labeled human PD-L1-Ig binding to Jurkat cell line over-expressing human PD-1) (Homo sapiens, UniProt Q15116)
T1 construct: expressed in transfected cells; host or cells: Jurkat
T1 sequence (Q15116 25-288): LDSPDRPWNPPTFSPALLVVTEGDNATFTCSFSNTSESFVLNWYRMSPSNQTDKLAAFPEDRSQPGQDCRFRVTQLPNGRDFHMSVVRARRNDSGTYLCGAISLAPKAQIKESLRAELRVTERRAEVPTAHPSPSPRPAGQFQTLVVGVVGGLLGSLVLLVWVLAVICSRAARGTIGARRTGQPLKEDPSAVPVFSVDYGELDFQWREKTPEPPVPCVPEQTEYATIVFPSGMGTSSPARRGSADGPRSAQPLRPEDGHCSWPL
Experiment: Jurkat-PD-1 Cell Binding High-Content Screening Assay (CBA)
Details: Jurkat-hPD-1 cells, PE-labeled PD-L1-Ig 20 nM final; read-out: Jurkat HPD1 PDL1 IC50
Protocol: Example 2: Jurkat-PD-1 Cell Binding High-Content Screening Assay (CBA)
Phycoerythrin (PE) was covalently linked to the Ig epitope tag of human PD-L1-Ig and fluorescently-labeled PD-L1-Ig was used for binding studies with a Jurkat cell line over-expressing human PD-1 (Jurkat-PD-1). Briefly, 8×10^3 Jurkat-hPD-1 cells were seeded into 384 well plates in 20 μl of DMEM supplemented with 10% fetal calf serum. 100 nl of compound was added to cells followed by incubation at 37° C. for 2 hours. Then, 5 μl of PE-labeled PD-L1-Ig (20 nM final), diluted in DMEM supplemented with 10% fetal calf serum. After 1 hour incubation, cells were fixed with […] in dPBS containing 10 μg/ml Hoechst 33342 and then washed 3× in 100 μl dPBS. Data was collected and processed using a Cell Insight NXT High Content Imager and associated software.

SMILES | IC50 [nM]
Cc1cccc(C[C@@H]2NC(=O)[C@H](CC(=O)O)NC(=O)[C@H](Cc3ccc(C(=O)O)cc3)NC(=O)[C@H](Cc3ccc(OCC(=O)O)cc3)NC(=O)CSC[C@@H](C(=O)NCC(=O)N[C@@H](CCC(=O)O)C(=O)NCCOCCOCC(=O)N[C@@H](CCC(=O)NCCOCCOCC(=O)NCCCCCCCCCCC(=O)O)C(=O)O)NC(=O)[C@H](CO)NC(=O)[C@H](C(C)C)NC(=O)[C@H](CC(C)C)NC(=O)[C@H](CC(N)=O)NC(=O)[C@@H](CC(C)C)NC(=O)[C@H](C)N(C)C(=O)[C@H](C(C)C)NC(=O)[C@H](Cc3ccc(-c4ccccc4)cc3)NC(=O)[C@H](CC(C)C)NC2=O)c1 [Example 1018] ({CH2CO}-Y(Carboxymethyl)[Phe(4-COOH)]D[Phe(3-Me)]L[Bip]V[NMeA][dL]NLVSCGE[AEEA][γGlu][AEEA][Aun]-OH; thioether N-14) | 67.7
Cc1cccc(C[C@@H]2NC(=O)[C@H](CC(=O)O)NC(=O)[C@H](Cc3ccc(C(=O)O)cc3)NC(=O)[C@H](Cc3ccc(OCC(=O)O)cc3)NC(=O)CSC[C@@H](C(=O)NCC(=O)N[C@@H](CC(=O)O)C(=O)NCCOCCOCC(=O)N[C@@H](CCC(=O)NCCOCCOCC(=O)NCCCCCCCCCCC(=O)O)C(=O)O)NC(=O)[C@H](CO)NC(=O)[C@H](C(C)C)NC(=O)[C@H](CC(C)C)NC(=O)[C@H](CC(N)=O)NC(=O)[C@@H](CC(C)C)NC(=O)[C@H](C)N(C)C(=O)[C@H](C(C)C)NC(=O)[C@H](Cc3ccc(-c4ccccc4)cc3)NC(=O)[C@H](CC(C)C)NC2=O)c1 [Example 1019] ({CH2CO}-Y(Carboxymethyl)[Phe(4-COOH)]D[Phe(3-Me)]L[Bip]V[NMeA][dL]NLVSCGD[AEEA][γGlu][AEEA][Aun]-OH; thioether N-14) | 58.5
Cc1cccc(C[C@@H]2NC(=O)[C@H](CC(=O)O)NC(=O)[C@H](Cc3ccc(C(=O)O)cc3)NC(=O)[C@H](Cc3ccc(OCC(=O)O)cc3)NC(=O)CSC[C@@H](C(=O)NCC(=O)N[C@@H](CCC(=O)O)C(=O)NCCOCCOCC(=O)N[C@@H](CC(=O)NCCOCCOCC(=O)NCCCCCCCCCCC(=O)O)C(=O)O)NC(=O)[C@H](CO)NC(=O)[C@H](C(C)C)NC(=O)[C@H](CC(C)C)NC(=O)[C@H](CC(N)=O)NC(=O)[C@@H](CC(C)C)NC(=O)[C@H](C)N(C)C(=O)[C@H](C(C)C)NC(=O)[C@H](Cc3ccc(-c4ccccc4)cc3)NC(=O)[C@H](CC(C)C)NC2=O)c1 [Example 1021] ({CH2CO}-Y(Carboxymethyl)[Phe(4-COOH)]D[Phe(3-Me)]L[Bip]V[NMeA][dL]NLVSCGE[AEEA][βAsp][AEEA][Aun]-OH; thioether N-14) | 76.2
Cc1cccc(C[C@@H]2NC(=O)[C@H](CC(=O)O)NC(=O)[C@H](Cc3ccc(C(=O)O)cc3)NC(=O)[C@H](Cc3ccc(OCC(=O)O)cc3)NC(=O)CSC[C@@H](C(=O)NCC(=O)N[C@@H](CC(=O)O)C(=O)NCCOCCOCC(=O)N[C@@H](CC(=O)NCCOCCOCC(=O)NCCCCCCCCCCC(=O)O)C(=O)O)NC(=O)[C@H](CO)NC(=O)[C@H](C(C)C)NC(=O)[C@H](CC(C)C)NC(=O)[C@H](CC(N)=O)NC(=O)[C@@H](CC(C)C)NC(=O)[C@H](C)N(C)C(=O)[C@H](C(C)C)NC(=O)[C@H](Cc3ccc(-c4ccccc4)cc3)NC(=O)[C@H](CC(C)C)NC2=O)c1 [Example 1022] ({CH2CO}-Y(Carboxymethyl)[Phe(4-COOH)]D[Phe(3-Me)]L[Bip]V[NMeA][dL]NLVSCGD[AEEA][βAsp][AEEA][Aun]-OH; thioether N-14) | 76.6
Cc1cccc(C[C@@H]2NC(=O)[C@H](CC(=O)O)NC(=O)[C@H](Cc3ccc(C(=O)O)cc3)NC(=O)[C@H](Cc3ccc(OCC(=O)O)cc3)NC(=O)CSC[C@@H](C(=O)NCC(=O)N[C@@H](CC(=O)NCCOCCOCC(=O)N[C@@H](CCC(=O)O)C(=O)NCCOCCOCC(=O)NCCCCCCCCCCC(=O)O)C(=O)O)NC(=O)[C@H](CO)NC(=O)[C@H](C(C)C)NC(=O)[C@H](CC(C)C)NC(=O)[C@H](CC(N)=O)NC(=O)[C@@H](CC(C)C)NC(=O)[C@H](C)N(C)C(=O)[C@H](C(C)C)NC(=O)[C@H](Cc3ccc(-c4ccccc4)cc3)NC(=O)[C@H](CC(C)C)NC2=O)c1 [Example 1023] ({CH2CO}-Y(Carboxymethyl)[Phe(4-COOH)]D[Phe(3-Me)]L[Bip]V[NMeA][dL]NLVSCG[βAsp][AEEA]E[AEEA][Aun]-OH; thioether N-14) | 119
Cc1cccc(C[C@@H]2NC(=O)[C@H](CC(=O)O)NC(=O)[C@H](Cc3ccc(C(=O)O)cc3)NC(=O)[C@H](Cc3ccc(OCC(=O)O)cc3)NC(=O)CSC[C@@H](C(=O)NCC(=O)N[C@@H](CC(=O)NCCOCCOCC(=O)N[C@@H](CC(=O)O)C(=O)NCCOCCOCC(=O)NCCCCCCCCCCC(=O)O)C(=O)O)NC(=O)[C@H](CO)NC(=O)[C@H](C(C)C)NC(=O)[C@H](CC(C)C)NC(=O)[C@H](CC(N)=O)NC(=O)[C@@H](CC(C)C)NC(=O)[C@H](C)N(C)C(=O)[C@H](C(C)C)NC(=O)[C@H](Cc3ccc(-c4ccccc4)cc3)NC(=O)[C@H](CC(C)C)NC2=O)c1 [Example 1024] ({CH2CO}-Y(Carboxymethyl)[Phe(4-COOH)]D[Phe(3-Me)]L[Bip]V[NMeA][dL]NLVSCG[βAsp][AEEA]D[AEEA][Aun]-OH; thioether N-14) | 87.5
Cc1cccc(C[C@@H]2NC(=O)[C@H](CC(=O)O)NC(=O)[C@H](Cc3ccc(C(=O)O)cc3)NC(=O)[C@H](Cc3ccc(OCC(=O)O)cc3)NC(=O)CSC[C@@H](C(=O)NCC(=O)N[C@@H](CC(=O)NCCOCCOCC(=O)N[C@@H](CC(=O)NCCCCCCCCCCC(=O)O)C(=O)O)C(=O)O)NC(=O)[C@H](CO)NC(=O)[C@H](C(C)C)NC(=O)[C@H](CC(C)C)NC(=O)[C@H](CC(N)=O)NC(=O)[C@@H](CC(C)C)NC(=O)[C@H](C)N(C)C(=O)[C@H](C(C)C)NC(=O)[C@H](Cc3ccc(-c4ccccc4)cc3)NC(=O)[C@H](CC(C)C)NC2=O)c1 [Example 1025] ({CH2CO}-Y(Carboxymethyl)[Phe(4-COOH)]D[Phe(3-Me)]L[Bip]V[NMeA][dL]NLVSCG[βAsp][AEEA][βAsp][Aun]-OH; thioether N-14) | 112
Cc1cccc(C[C@@H]2NC(=O)[C@H](CC(=O)O)NC(=O)[C@H](Cc3ccc(C(=O)O)cc3)NC(=O)[C@H](Cc3ccc(OCC(=O)O)cc3)NC(=O)CSC[C@@H](C(=O)NCCOCCOCC(=O)NCCCCCCCCCCC(=O)O)NC(=O)[C@H](CO)NC(=O)[C@H](C(C)C)NC(=O)[C@H](CC(C)C)NC(=O)[C@H](CC(N)=O)NC(=O)[C@@H](CC(C)C)NC(=O)[C@H](C)N(C)C(=O)[C@H](C(C)C)NC(=O)[C@H](Cc3ccc(-c4ccccc4)cc3)NC(=O)[C@H](CC(C)C)NC2=O)c1 [Example 1027] ({CH2CO}-Y(Carboxymethyl)[Phe(4-COOH)]D[Phe(3-Me)]L[Bip]V[NMeA][dL]NLVSC[AEEA][Aun]-OH; thioether N-14) | 21.9
CC(C)C[C@@H]1NC(=O)[C@H](Cc2c[nH]c3ccccc23)NC(=O)[C@H](CC(=O)O)NC(=O)[C@H](Cc2ccc(C(=O)O)cc2)NC(=O)[C@H](Cc2ccc(OCC(=O)O)cc2)NC(=O)CSC[C@@H](C(=O)NCC(=O)N[C@@H](CN)C(=O)NCC(=O)NCCCCCCCCCCC(=O)O)NC(=O)[C@H](CO)NC(=O)[C@H](C(C)C)NC(=O)[C@H](CC2CCCCC2)NC(=O)[C@H](CCN)NC(=O)[C@@H](CC(C)C)NC(=O)[C@H](C)N(C)C(=O)[C@H](C(C)C)NC(=O)[C@H](Cc2ccc(-c3ccccc3)cc2)NC1=O [Example 1028] ({CH2CO}-Y(Carboxymethyl)[Phe(4-COOH)]DWL[Bip]V[NMeA][dL][Dab][Cha]VSCG[Dap]G[Aun]-OH; thioether N-14) | 14.7
CC(C)C[C@@H]1NC(=O)[C@H](Cc2c[nH]c3ccccc23)NC(=O)[C@H](CC(=O)O)NC(=O)[C@H](Cc2ccc(C(=O)O)cc2)NC(=O)[C@H](Cc2ccc(OCC(=O)O)cc2)NC(=O)CSC[C@@H](C(=O)NCC(=O)N[C@@H](CCN)C(=O)NCC(=O)NCCCCCCCCCCC(=O)O)NC(=O)[C@H](CO)NC(=O)[C@H](C(C)C)NC(=O)[C@H](CC2CCCCC2)NC(=O)[C@H](CCN)NC(=O)[C@@H](CC(C)C)NC(=O)[C@H](C)N(C)C(=O)[C@H](C(C)C)NC(=O)[C@H](Cc2ccc(-c3ccccc3)cc2)NC1=O [Example 1029] ({CH2CO}-Y(Carboxymethyl)[Phe(4-COOH)]DWL[Bip]V[NMeA][dL][Dab][Cha]VSCG[Dab]G[Aun]-OH; thioether N-14) | 9
CC(C)C[C@@H]1NC(=O)[C@H](Cc2c[nH]c3ccccc23)NC(=O)[C@H](CC(=O)O)NC(=O)[C@H](Cc2ccc(C(=O)O)cc2)NC(=O)[C@H](Cc2ccc(OCC(=O)O)cc2)NC(=O)CSC[C@@H](C(=O)NCC(=O)N[C@@H](CCCN)C(=O)NCC(=O)NCCCCCCCCCCC(=O)O)NC(=O)[C@H](CO)NC(=O)[C@H](C(C)C)NC(=O)[C@H](CC2CCCCC2)NC(=O)[C@H](CCN)NC(=O)[C@@H](CC(C)C)NC(=O)[C@H](C)N(C)C(=O)[C@H](C(C)C)NC(=O)[C@H](Cc2ccc(-c3ccccc3)cc2)NC1=O [Example 1030] ({CH2CO}-Y(Carboxymethyl)[Phe(4-COOH)]DWL[Bip]V[NMeA][dL][Dab][Cha]VSCG[Orn]G[Aun]-OH; thioether N-14) | 10.6
CC(C)C[C@@H]1NC(=O)[C@H](Cc2c[nH]c3ccccc23)NC(=O)[C@H](CC(=O)O)NC(=O)[C@H](Cc2ccc(C(=O)O)cc2)NC(=O)[C@H](Cc2ccc(OCC(=O)O)cc2)NC(=O)CSC[C@@H](C(=O)NCC(=O)N[C@@H](CCCCN)C(=O)NCC(=O)NCCCCCCCCCCC(=O)O)NC(=O)[C@H](CO)NC(=O)[C@H](C(C)C)NC(=O)[C@H](CC2CCCCC2)NC(=O)[C@H](CCN)NC(=O)[C@@H](CC(C)C)NC(=O)[C@H](C)N(C)C(=O)[C@H](C(C)C)NC(=O)[C@H](Cc2ccc(-c3ccccc3)cc2)NC1=O [Example 1031] ({CH2CO}-Y(Carboxymethyl)[Phe(4-COOH)]DWL[Bip]V[NMeA][dL][Dab][Cha]VSCGKG[Aun]-OH; thioether N-14) | 10.7
